Reference: patent publication EP4562003B1, “NOVEL 7-SUBSTITUTED INDOLE SULFONAMIDE DERIVATIVES” (F. Hoffmann-La Roche AG, priority 2022, dated 2024)

Target: human GPR17 short isoform (Homo sapiens, UniProt Q13304)
Test: GPR17 cAMP assay (TR-FRET cAMP quantification, antagonist mode)
Assay type: cell-based
Details: CHO-K1 cells stably expressing human GPR17 short isoform; EC80 of agonist MDL29,951; forskolin 15µM; IBMX 0.5mM; 30 minutes at room temperature; read-out: hGPR17 cAMP IC50
Summary of the method: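 CHO-K1 cells stably expressing untagged human GPR17 short isoform, 10'000 cells/well in HBSS/10mM HEPES/0.1% BSA pH 7.4. Compounds added with EC80 MDL29,951 plus 0.5mM IBMX, then 15µM forskolin; 30 min at room temperature. cAMP read by TR-FRET after 90 min lysis; normalized to reference antagonist maximal activity, sigmoidal fit.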

human GPR17 short isoform, sequence (Q13304 29-367): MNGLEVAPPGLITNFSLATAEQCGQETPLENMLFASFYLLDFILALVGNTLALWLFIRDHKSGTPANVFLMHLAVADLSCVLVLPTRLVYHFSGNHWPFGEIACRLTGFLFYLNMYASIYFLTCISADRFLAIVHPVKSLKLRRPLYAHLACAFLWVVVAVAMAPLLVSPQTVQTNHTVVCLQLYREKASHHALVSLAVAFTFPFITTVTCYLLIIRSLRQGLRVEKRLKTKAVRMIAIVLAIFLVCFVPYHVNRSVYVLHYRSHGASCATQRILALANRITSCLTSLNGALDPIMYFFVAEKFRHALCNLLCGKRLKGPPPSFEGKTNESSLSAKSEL

SMILES	IC50 [µM]
COc1nc(NS(=O)(=O)c2c[nH]c3c(-c4cncc(C)n4)c(Cl)ccc23)nc(OC)c1CC(F)F [Example 86, 6-chloro-N-[5-(2,2-difluoroethyl)-4,6-dimethoxy-pyrimidin-2-yl]-7-(6-methylpyrazin-2-yl)-1H-indole-3-sulfonamide]	0.029
COc1nc(NS(=O)(=O)c2c[nH]c3c(-c4cncc(C)n4)c(Cl)ccc23)nc(OC)c1OC(F)F [Example 87, 6-chloro-N-[5-(difluoromethoxy)-4,6-dimethoxy-pyrimidin-2-yl]-7-(6-methylpyrazin-2-yl)-1H-indole-3-sulfonamide]	0.031
COc1nc(NS(=O)(=O)c2c[nH]c3c(-c4cncc(C)n4)c(Cl)ccc23)nc(OC)c1OCC(F)F [Example 88, 6-chloro-N-[5-(2,2-difluoroethoxy)-4,6-dimethoxy-pyrimidin-2-yl]-7-(6-methylpyrazin-2-yl)-1H-indole-3-sulfonamide]	0.027
COc1nc(NS(=O)(=O)c2c[nH]c3c(-c4cncnc4)c(Cl)ccc23)nc(OC)c1OCC(F)F [Example 89, 6-chloro-N-[5-(2,2-difluoroethoxy)-4,6-dimethoxy-pyrimidin-2-yl]-7-(5-pyrimidyl)-1H-indole-3-sulfonamide]	0.042
COc1nc(NS(=O)(=O)c2c[nH]c3c(-c4cnc(Cl)cn4)c(Cl)ccc23)nc(OC)c1OCC(F)F [Example 90, 6-chloro-7-(5-chloropyrazin-2-yl)-N-[5-(2,2-difluoroethoxy)-4,6-dimethoxy-pyrimidin-2-yl]-1H-indole-3-sulfonamide]	0.261
COc1nc(NS(=O)(=O)c2c[nH]c3c(-c4cnc(Cl)cn4)c(Cl)ccc23)nc(OC)c1CC(F)F [Example 91, 6-chloro-7-(5-chloropyrazin-2-yl)-N-[5-(2,2-difluoroethyl)-4,6-dimethoxy-pyrimidin-2-yl]-1H-indole-3-sulfonamide]	0.225
COc1nc(NS(=O)(=O)c2c[nH]c3c(-c4cccc(C)n4)c(Cl)ccc23)nc(OC)c1OCC(F)F [Example 92, 6-chloro-N-[5-(2,2-difluoroethoxy)-4,6-dimethoxy-pyrimidin-2-yl]-7-(6-methyl-2-pyridyl)-1H-indole-3-sulfonamide]	0.028
COc1nc(NS(=O)(=O)c2c[nH]c3c(-c4cccc(C)n4)c(Cl)ccc23)nc(OC)c1CC(F)F [Example 93, 6-chloro-N-[5-(2,2-difluoroethyl)-4,6-dimethoxy-pyrimidin-2-yl]-7-(6-methyl-2-pyridyl)-1H-indole-3-sulfonamide]	0.024
COc1nc(NS(=O)(=O)c2c[nH]c3c(-c4cccc(C)n4)c(Cl)ccc23)nc(OC)c1OC(F)F [Example 94, 6-chloro-N-[5-(difluoromethoxy)-4,6-dimethoxy-pyrimidin-2-yl]-7-(6-methyl-2-pyridyl)-1H-indole-3-sulfonamide]	0.02
COc1nc(NS(=O)(=O)c2c[nH]c3c(-c4ccnnc4)c(Cl)ccc23)nc(OC)c1OCC(F)F [Example 95, 6-chloro-N-[5-(2,2-difluoroethoxy)-4,6-dimethoxy-pyrimidin-2-yl]-7-pyridazin-4-yl-1H-indole-3-sulfonamide]	0.046
COc1nc(NS(=O)(=O)c2c[nH]c3c(-c4cc(C)ncn4)c(Cl)ccc23)nc(OC)c1OCC(F)F [Example 96, 6-chloro-N-[5-(2,2-difluoroethoxy)-4,6-dimethoxy-pyrimidin-2-yl]-7-(6-methylpyrimidin-4-yl)-1H-indole-3-sulfonamide]	0.032
COc1nc(NS(=O)(=O)c2c[nH]c3c(-c4nccnc4F)c(Cl)ccc23)nc(OC)c1CC(F)F [Example 97, 6-chloro-N-[5-(2,2-difluoroethyl)-4,6-dimethoxy-pyrimidin-2-yl]-7-(3-fluoropyrazin-2-yl)-1H-indole-3-sulfonamide]	0.034
COc1nc(NS(=O)(=O)c2c[nH]c3c(-c4nccnc4F)c(Cl)ccc23)nc(OC)c1OCC(F)F [Example 98, 6-chloro-N-[5-(2,2-difluoroethoxy)-4,6-dimethoxy-pyrimidin-2-yl]-7-(3-fluoropyrazin-2-yl)-1H-indole-3-sulfonamide]	0.035
COc1nc(NS(=O)(=O)c2c[nH]c3c(-c4nccnc4F)c(Cl)ccc23)nc(OC)c1OC(F)F [Example 99, 6-chloro-N-[5-(difluoromethoxy)-4,6-dimethoxy-pyrimidin-2-yl]-7-(3-fluoropyrazin-2-yl)-1H-indole-3-sulfonamide]	0.038
COc1nc(NS(=O)(=O)c2c[nH]c3c(-c4ncccc4C)c(Cl)ccc23)nc(OC)c1OCC(F)F [Example 100, 6-chloro-N-[5-(2,2-difluoroethoxy)-4,6-dimethoxy-pyrimidin-2-yl]-7-(3-methyl-2-pyridyl)-1H-indole-3-sulfonamide]	0.04
COc1nc(NS(=O)(=O)c2c[nH]c3c(-c4cn(C)nn4)c(Cl)ccc23)nc(OC)c1OCC(F)F [Example 101, 6-chloro-N-[5-(2,2-difluoroethoxy)-4,6-dimethoxy-pyrimidin-2-yl]-7-(1-methyltriazol-4-yl)-1H-indole-3-sulfonamide]	0.043

SMILES	IC50 [µM]
COc1nc(NS(=O)(=O)c2c[nH]c3c(-c4ncccc4C)c(Cl)ccc23)nc(OC)c1CC(F)F [Example 102, 6-chloro-N-[5-(2,2-difluoroethyl)-4,6-dimethoxy-pyrimidin-2-yl]-7-(3-methyl-2-pyridyl)-1H-indole-3-sulfonamide]	0.042
COc1nc(NS(=O)(=O)c2c[nH]c3c(-c4ncccc4C)c(Cl)ccc23)nc(OC)c1OC(F)F [Example 103, 6-chloro-N-[5-(difluoromethoxy)-4,6-dimethoxy-pyrimidin-2-yl]-7-(3-methyl-2-pyridyl)-1H-indole-3-sulfonamide]	0.054
COc1nc(NS(=O)(=O)c2c[nH]c3c(-c4ncn(C)n4)c(Cl)ccc23)nc(OC)c1OCC(F)F [Example 104, 6-chloro-N-[5-(2,2-difluoroethoxy)-4,6-dimethoxy-pyrimidin-2-yl]-7-(1-methyl-1,2,4-triazol-3-yl)-1H-indole-3-sulfonamide]	0.113
COc1nc(NS(=O)(=O)c2c[nH]c3c(-c4ncc(F)cn4)c(Cl)ccc23)nc(OC)c1OCC(F)F [Example 105, 6-chloro-N-[5-(2,2-difluoroethoxy)-4,6-dimethoxy-pyrimidin-2-yl]-7-(5-fluoropyrimidin-2-yl)-1H-indole-3-sulfonamide]	0.221
COc1nc(NS(=O)(=O)c2c[nH]c3c(-c4cnn(C)n4)c(Cl)ccc23)nc(OC)c1OCC(F)F [Example 106, 6-chloro-N-[5-(2,2-difluoroethoxy)-4,6-dimethoxy-pyrimidin-2-yl]-7-(2-methyltriazol-4-yl)-1H-indole-3-sulfonamide]	0.034
COc1nc(NS(=O)(=O)c2c[nH]c3c(-c4cnn(C)n4)c(Cl)ccc23)nc(OC)c1OC(F)F [Example 107, 6-chloro-N-[5-(difluoromethoxy)-4,6-dimethoxy-pyrimidin-2-yl]-7-(2-methyltriazol-4-yl)-1H-indole-3-sulfonamide]	0.076
COc1nc(NS(=O)(=O)c2c[nH]c3c(-c4cnn(C)n4)c(Cl)ccc23)nc(OC)c1CC(F)F [Example 108, 6-chloro-N-[5-(2,2-difluoroethyl)-4,6-dimethoxy-pyrimidin-2-yl]-7-(2-methyltriazol-4-yl)-1H-indole-3-sulfonamide]	0.032
COc1nc(NS(=O)(=O)c2c[nH]c3c(-c4cnn(C)n4)c(Cl)ccc23)nc(OC)c1OCCF [Example 109, 6-chloro-N-[5-(2-fluoroethoxy)-4,6-dimethoxy-pyrimidin-2-yl]-7-(2-methyltriazol-4-yl)-1H-indole-3-sulfonamide]	0.036
COc1nc(NS(=O)(=O)c2c[nH]c3c(-c4nnco4)c(Cl)ccc23)nc(OC)c1OCC(F)F [Example 110, 6-chloro-N-[5-(2,2-difluoroethoxy)-4,6-dimethoxy-pyrimidin-2-yl]-7-(1,3,4-oxadiazol-2-yl)-1H-indole-3-sulfonamide]	0.046
COc1nc(NS(=O)(=O)c2c[nH]c3c(-c4cnn(C)c4)c(Cl)ccc23)nc(OC)c1OCC(F)F [Example 111, 6-chloro-N-[5-(2,2-difluoroethoxy)-4,6-dimethoxy-pyrimidin-2-yl]-7-(1-methylpyrazol-4-yl)-1H-indole-3-sulfonamide]	0.053
COc1nc(NS(=O)(=O)c2c[nH]c3c(-c4cnn(C)c4)c(Cl)ccc23)nc(OC)c1OCCF [Example 112, 6-chloro-N-[5-(2-fluoroethoxy)-4,6-dimethoxy-pyrimidin-2-yl]-7-(1-methylpyrazol-4-yl)-1H-indole-3-sulfonamide]	0.052
COc1nc(NS(=O)(=O)c2c[nH]c3c(-c4cnn(C)c4)c(Cl)ccc23)nc(OC)c1OC(F)F [Example 113, 6-chloro-N-[5-(difluoromethoxy)-4,6-dimethoxy-pyrimidin-2-yl]-7-(1-methylpyrazol-4-yl)-1H-indole-3-sulfonamide]	0.082
COc1nc(NS(=O)(=O)c2c[nH]c3c(-c4cnn(C)c4)c(Cl)ccc23)nc(OC)c1CC(F)F [Example 114, 6-chloro-N-[5-(2,2-difluoroethyl)-4,6-dimethoxy-pyrimidin-2-yl]-7-(1-methylpyrazol-4-yl)-1H-indole-3-sulfonamide]	0.055
COc1nc(NS(=O)(=O)c2c[nH]c3c(-c4cscn4)c(Cl)ccc23)nc(OC)c1OCC(F)F [Example 115, 6-chloro-N-[5-(2,2-difluoroethoxy)-4,6-dimethoxy-pyrimidin-2-yl]-7-thiazol-4-yl-1H-indole-3-sulfonamide]	0.04
COc1nc(NS(=O)(=O)c2c[nH]c3c(-c4cnco4)c(Cl)ccc23)nc(OC)c1OCC(F)F [Example 116, 6-chloro-N-[5-(2,2-difluoroethoxy)-4,6-dimethoxy-pyrimidin-2-yl]-7-oxazol-5-yl-1H-indole-3-sulfonamide]	0.059
